In PMC8610590 (Journal of Virology, 2021):

Tests used:
[1] = test system: SARS-CoV-2 South African variant (linage: B.1.351); assay: microbe, parasite or virus in culture; type: cell-based; conditions: Severe acute respiratory syndrome coronavirus 2, Calu-3, read-out: IC50, inhibition of SARS-CoV-2 replication
[2] = test system: SARS-CoV-2 Scotland variant (linage: B.1.222); assay: microbe, parasite or virus in culture; type: cell-based; conditions: Severe acute respiratory syndrome coronavirus 2, Calu-3, read-out: IC50, inhibition of SARS-CoV-2 replication

| Compound | IC50 [1] [µM] | IC50 [2] [µM] |
| --- | --- | --- |
| CN1C(=O)c2ccccc2[S+]([O-])c2cc([N+](=O)[O-])ccc2S1(=O)=O (stereo not shown) [MU-UNMC-1, 6-methyl-2-nitrodibenzo[d,g][1,6,2]dithiazocin-7(6H)-one 5,5,12-trioxide] | 9.27 | 2.64 |
| O=C1Nc2cc(C(F)(F)F)ccc2Oc2ccsc21 [MU-UNMC-2, 7-(trifluoromethyl) benzo[b]thieno[2,3-f][1,4]oxazepin-10(9H)-one] | 3 | 1.39 |
